Results taken from patent US20220354811A1, “METHODS AND COMPOSITIONS FOR MODULATING MACROPHAGES POLARIZATION” (INSERM (INSTITUT NATIONAL DE LA SANTÉ ET DE LA RECHERCHE …, priority 2019, published 2022).

Experiments:
[1] = system: human freshly isolated monocytes; assay: Spontaneous apoptosis of untreated monocytes cultured without CSF-1 (Annexin V staining); type: cell-based; conditions: 24 h in culture without CSF-1
caspases 8, 3 and 7 = assay: Western blot of caspase cleavage in monocytes; type: cell-based, human; conditions: for cleavage of effector caspases-3 and -7 at their specific differentiation cleavage site: monocytes treated 2 days with CSF-1; for cleavage of the zymogens of caspases 8, 3 and 7 in their active 17-20 kDa fragments: untreated monocytes without CSF-1, 24 h
Protocol: Lysates were centrifuged at 20,000 g (15 min, 4° C.) and supernatants were supplemented with concentrated loading buffer (4× Laemmli buffer). Fifty micrograms of proteins were separated and transferred following standard protocols before analysis with the chemiluminescence detection kit (GE Healthcare, RPN2105).

caspase-8 [2] = target: T1, caspase-8 (Homo sapiens, UniProt Q14790); assay: Caspase-8 activity in cellulo in CSF-1-differentiating monocytes (flow cytometry, IETD); type: cell-based; parameters: endogenous in cells; host or cells: primary human peripheral blood monocytes exposed to CSF-1; conditions: CSF-1 2 days
Text: (§1) FIG. 5. […] Caspases activities from 3 different healthy donors was examined by flow cytometry analysis. The results are expressed as percentage of IETD or DEVD positive cells and represent the mean±SD of 3 independent experiments performed in duplicate. n.s. denotes not statistically significant according to a paired student t test. *P<0.05, **P<0.01, ***P<0.001 according to a paired student t test (versus d2). Asterisks indicate cleavage fragments. Each panel is representative of at least 3 independent experiments.
(§2) To analyze the macrophagic differentiation of monocytes, the cells were washed with ice-cold phosphate buffered saline (PBS, Life Technologies, 14190169), incubated at 4° C. for 10 min in PBS/bovine serum albumin (BSA 0.5%, Dutscher, 871002) with anti-CD16, anti-CD71 and anti-CD163 or isotype controls (Miltenyi and BD Biosciences, catalog numbers were 130-113-396, 130-097-628 and 551374). […] Fluorescence was measured with a MACSQuant® Analyzer (Miltenyi, Paris, France). […] Fluorescence was measured with a MACSQuant® Analyzer (Miltenyi, Paris, France). […] Fluorescence, that indicate the internalization of particles, was measured with a MACSQuant® Analyzers (Miltenyi, France). Trypan blue solution was used to quench the fluorescence from particles that were not internalized. […]
(§3) After 2 days, caspase-8 activity was assessed by flow cytometry using Ac-IETD-FITC as substrate (data not shown).
Target sequence in this assay (Q14790 217-479): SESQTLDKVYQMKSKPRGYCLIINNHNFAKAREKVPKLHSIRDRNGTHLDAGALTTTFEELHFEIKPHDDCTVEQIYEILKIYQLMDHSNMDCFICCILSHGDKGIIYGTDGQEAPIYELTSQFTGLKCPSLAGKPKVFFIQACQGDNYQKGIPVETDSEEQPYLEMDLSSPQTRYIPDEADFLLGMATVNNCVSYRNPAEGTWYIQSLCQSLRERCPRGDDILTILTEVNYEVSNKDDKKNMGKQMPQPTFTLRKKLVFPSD

caspase-8 [3] = target: T1, caspase-8; assay: Recombinant caspase-8 activity in vitro (Ac-IETD-AMC substrate); type: biochemical; parameters: using active recombinant proteins of caspase-8 and caspase-3; purchased Enzo life sciences ALX-201-062; conditions: recombinant caspase-8, Ac-IETD-AMC
Text: (§4) FIG. 4. […] (A) Measures of caspase-8 activity (IETD-AMC). IETD-CHO treatment is used as positive control in the in vitro assay. The results are expressed as A.U./min and represent the mean of 3 independent experiments realized in duplicate (B) Measures of caspase-3 activity (DEVD-AMC). DEVD-CHO is used as positive control in the in vitro assay. The results are expressed as A.U./min and represent the mean of 3 independent experiments realized in duplicate. Human CSF-1 was purchased from Miltenyi (130-096-493). […] Mouse caspase-8 was from R&D Systems (AF705). HRP-conjugated rabbit anti-goat was purchased from Dako ([…]) and HRP-conjugated goat anti-rabbit was from Cell Signaling (5127). Active recombinant caspase-8 (ALX-201-062) and -3 (ALX-201-059) were from Enzo life sciences. […] Each assay (in triplicate) was performed with 10 μg of protein prepared from control or stimulated cells. […] Enzyme activities were expressed in arbitrary units (A.U.) per min and per mg of proteins. The same protocol was used with 0.25 units of active recombinant caspase-8 (Enzo, ALX-201-062) or -3 (Enzo, ALX-201-059) in each triplicate.
Target sequence in this assay (Q14790 217-374 limits assumed): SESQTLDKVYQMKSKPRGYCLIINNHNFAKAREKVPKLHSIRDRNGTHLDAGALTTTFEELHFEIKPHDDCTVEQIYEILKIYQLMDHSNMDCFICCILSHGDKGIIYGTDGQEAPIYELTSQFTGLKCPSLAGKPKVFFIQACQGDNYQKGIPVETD
Target sequence in this assay (Q14790 385-479 limits assumed): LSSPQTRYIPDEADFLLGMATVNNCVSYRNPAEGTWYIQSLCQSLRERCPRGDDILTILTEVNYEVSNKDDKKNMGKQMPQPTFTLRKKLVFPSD

caspase 3 [4] = target: T2, caspase 3 (Homo sapiens, UniProt P42574); assay: Recombinant caspase-3 activity in vitro (Ac-DEVD-AMC substrate); type: biochemical; parameters: using active recombinant proteins of caspase-8 and caspase-3; purchased Enzo life sciences ALX-201-059; conditions: recombinant caspase-3, Ac-DEVD-AMC
T2 sequence (P42574 29-175 limits assumed): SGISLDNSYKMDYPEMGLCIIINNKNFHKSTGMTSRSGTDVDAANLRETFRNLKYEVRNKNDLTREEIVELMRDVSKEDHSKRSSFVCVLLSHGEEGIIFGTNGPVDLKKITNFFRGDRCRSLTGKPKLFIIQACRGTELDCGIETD
T2 sequence (P42574 176-277 limits assumed): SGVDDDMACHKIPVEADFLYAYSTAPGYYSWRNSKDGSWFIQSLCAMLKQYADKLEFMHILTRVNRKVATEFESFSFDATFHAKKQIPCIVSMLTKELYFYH
Text: as §4

caspase 3 [5] = target: T2, caspase 3; assay: Caspase-3 activity in cellulo in CSF-1-differentiating monocytes (flow cytometry, DEVD); type: cell-based; parameters: endogenous in cells; host or cells: primary human peripheral blood monocytes (CD14-selected, healthy donors); conditions: identical conditions: Emricasan single dose, Q-VD-OPh 100 μM 2 times
Text: as §1, §2, §3

[6] = several recent studies (Frenette 2019; Barreyro 2015; Baskin-Bey 2007); cited from earlier work

effect on caspase-8 activity in cellulo (caspase-8 [2]; added twice at 100 μM) | Compound | concentration sufficient to abrogate Annexin V staining [1] [µM] | cleavage of effector caspases-3 and -7 at their specific differentiation cleavage site (caspases 8, 3 and 7) | cleavage of the zymogens of caspases 8, 3 and 7 in their active 17-20 kDa fragments (caspases 8, 3 and 7) | IC50 (caspase-8 [3]) [nM] | concentration that abrogated / fully inhibited caspase-8 activity (caspase-8 [3]) [µM] | IC50 (caspase 3 [4]) [nM] | concentration of maximal inhibition of caspase-3 (caspase 3 [4]) [µM] | effect on caspase-3 activity in cellulo (caspase 3 [5]) | liver functions in patients suffering liver diseases [6] | single dose that abrogated caspase-8 activity in cellulo (caspase-8 [2]; flow cytometry) [µM]
strong inhibition | CC(C)[C@H](NC(=O)c1ccc2ccccc2n1)C(=O)N[C@@H](CC(=O)O)C(=O)COc1c(F)cccc1F [Q-VD-OPh] | ≤ 5 | impaired | abrogated | ~1000 | 50 | ~500 | 10 | potent inhibition |  | 
 | C[C@H](NC(=O)C(=O)Nc1ccccc1C(C)(C)C)C(=O)N[C@@H](CC(=O)O)C(=O)COc1c(F)c(F)cc(F)c1F [Emricasan, (S)-3-((S)-2-(2-((2-(tert-Butyl)phenyl)amino)-2-oxoacetamido)propanamido)-4-oxo-5-(2,3,5,6-tetrafluorophenoxy)pentanoic acid] | 2 | impaired | abrogated | 12 | 0.2 | ~500 | 10 | potent inhibition | improve liver functions | 2
